The test system of this test is Plasmodium falciparum. In words: Mean of EC50 values for FM3A cells/ mean of EC50 values for Plasmodium falciparum. It counts as functional, organism-based.
As for `CC1C(O)O[C@@H]2OC3(C)CC[C@H]4[C@H](C)CC[C@@H]1[C@@]24OO3` (single isomer, unassigned), the midpoint of inhibition, the IC50, lay at 1.1 nM.
For `CCOC1O[C@@H]2OC3(C)CC[C@H]4[C@H](C)CC[C@@H](C1C)[C@@]24OO3` (single isomer, unassigned) the value was 24 nM; for `C=C1C(=O)O[C@@H]2OC3(C)CC[C@H]4[C@H](C)CC[C@@H]1[C@@]24OO3` (single isomer, unassigned), 30 nM; for `C[C@@H]1CC[C@H]2C(CSc3ccccc3)C(=O)O[C@@H]3OC4(C)CC[C@@H]1[C@]32OO4` (single isomer, unassigned), 20 nM.
For `C[C@@H]1CC[C@H]2C(Cn3ccnc3)C(O)O[C@@H]3OC4(C)CC[C@@H]1[C@]32OO4` (single isomer, unassigned) the value was 0.39 nM.
Turning to `C[C@@H]1CC[C@H]2C(Cn3ccnc3)C(=O)O[C@@H]3OC4(C)CC[C@@H]1[C@]32OO4` (single isomer, unassigned), inhibition was half-maximal at 32 nM (IC50).
For `CC1C(OC(=O)CCC(=O)O)O[C@@H]2O[C@]3(C)CC[C@H]4[C@H](C)CC[C@@H]1[C@@]24OO3` (some centres undefined) the value was 0.62 nM; for `COC1O[C@@H]2OC3(C)CC[C@H]4[C@H](C)CC[C@@H](C1C)[C@@]24OO3` (single isomer, unassigned), 4.1 nM; for `C[C@@H]1CC[C@H]2[C@@H](C)C(=O)O[C@@H]3O[C@@]4(C)CC[C@@H]1[C@]32OO4` [ARTEMISININ], 5 nM.

Usually IC50 stands for the concentration that inhibits the measured activity by half. Read a high IC50 as weaker potency.

These data come from ChEMBL document CHEMBL1129949, “Correlation of antimalarial activity of artemisinin derivatives with binding affinity with ferroprotoporphyrin IX” (J Med Chem, 1997).
